Experimental data: patent publication US20110045032A1 (priority 2001, published 2011)

Legend:
HT-29 SF cells [1] = experiment: Reversal of DHEA-mediated growth inhibition by supplements; format: cell-based, human; details: 25 μM DHEA, 48 hours of treatment
mast cell = details: cell incubation for 5 min; cited from earlier work
HT-29 SF cells [2] = experiment: Reversal of DHEA effect on cell cycle by supplements; format: cell-based, human; details: 25 μM DHEA
HT-29 SF cells [3] = experiment: DHEA effect on cell cycle distribution (flow cytometry); format: cell-based, human; details: 25-200 μM, 24-72 hours; time- and dose-dependent
Procedure: Cells were plated at 10^5/60-mm dish in duplicate. […] Cultures were trypsinized following […] and fixed and stained using a modification of a procedure of Bauer et al., Cancer Res., 46, 3173-3178 (1986). Briefly, cells were collected by centrifugation and resuspended in cold phosphate-buffered saline. Cells were fixed in 70% ethanol, washed, and resuspended in phosphate-buffered saline.
After 24, 48, and 72 hours, cells were harvested, fixed in ethanol, and stained with propidium iodide, and the DNA content/cell was determined by flow cytometric analysis. The percentage of cells in G1, S, and G2M phases was calculated using the Cellfit cell cycle analysis program. S phase is marked by a quadrangle for clarity. Representative histograms from duplicate determinations are shown. The experiment was repeated three times.

HT-29 SF cells [4] = experiment: DHEA effect on cell growth (Coulter counter)
Procedure: Cell cultures, HT-29 SF cells, which represent a subline of HY-29 cells (ATCC, Rockville, Md.) and are adapted for growth in completely defined serum-free PC-1 medium (Ventrex, Portland, Me.), were obtained. Stock cultures were maintained in this medium at 37° (in a humidified atmosphere containing 5% CO2).

[5] = tested on: adult acute asthma exacerbation; details: in conjunction with beta 2-agonists; adult and pediatric studies; cited from earlier work
[6] = tested on: patients with mild-to-moderate asthma; details: cited from earlier work
mast cells = details: cited from earlier work
[7] = tested on: Intracellular Adenosine in various Rat Tissues; format: in vivo
Procedure: Folinic acid (50 mg/kg) was administered intraperitoneally once daily for fourteen days. […] Hearts were removed from animals and flash frozen in liquid nitrogen with 10 seconds of death. Liver and lungs were removed en bloc and flash frozen with 30 seconds of death. Brain tissue was subsequently dissected.

[8] = tested on: dust mite-sensitized rabbits; experiment: Adenosine sensitivity PC40 (Example 25 animals); details: 4 animals
[9] = tested on: dust mite-sensitized rabbits; experiment: Adenosine sensitivity PC40 (Example 26 animals); details: 5 animals
muscarinic receptors = details: cited from earlier work
[10] = biological target: T1, M(1)-muscarinic receptors (Homo sapiens, UniProt P11229); details: cited from earlier work
T1 sequence (P11229 1-460): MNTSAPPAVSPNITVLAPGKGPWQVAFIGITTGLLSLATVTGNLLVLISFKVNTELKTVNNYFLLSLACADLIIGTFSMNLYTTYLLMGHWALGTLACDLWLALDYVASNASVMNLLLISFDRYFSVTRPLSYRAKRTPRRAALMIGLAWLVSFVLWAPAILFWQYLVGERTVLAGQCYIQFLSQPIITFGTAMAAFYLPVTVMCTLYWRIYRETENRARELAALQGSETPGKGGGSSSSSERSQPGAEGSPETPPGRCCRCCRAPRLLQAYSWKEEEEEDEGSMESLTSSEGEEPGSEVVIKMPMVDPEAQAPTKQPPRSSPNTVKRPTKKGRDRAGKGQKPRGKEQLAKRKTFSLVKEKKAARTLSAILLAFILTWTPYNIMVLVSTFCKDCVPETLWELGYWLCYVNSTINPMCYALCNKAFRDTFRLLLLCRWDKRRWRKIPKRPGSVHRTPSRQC

[11] = tested on: asthmatic and chronic obstructive pulmonary disease (COPD) patients; details: cited from earlier work

CC(C)=CCC/C(C)=C/CC/C(C)=C/CC/C=C(\C)CC/C=C(\C)CCC=C(C)C [SQ, squalene]
reversal of DHEA-induced growth inhibition by supplement (HT-29 SF cells [1]): no such effect

CN1[C@@H]2CC[C@H]1C[C@@H](OC(=O)C(CO)c1ccccc1)C2 (stereo partly drawn) [atropine]
inhibition of histamine release (mast cell): no distinction

CC(C)CCC[C@@H](C)[C@H]1CC[C@H]2[C@@H]3CC=C4C[C@@H](O)CC[C@]4(C)[C@H]3CC[C@]12C [CH, cholesterol]
reversal of DHEA-induced growth inhibition by supplement (HT-29 SF cells [1]): no such effect
prevention of DHEA-induced S phase depletion (HT-29 SF cells [2]; 48 hours): very little effect

C[C@]12CC[C@H](O)CC1=CC[C@@H]1[C@@H]2CC[C@]2(C)C(=O)CC[C@@H]12 [DHEA, dehydroepiandrosterone]
cell cycle effect (overall) (HT-29 SF cells [3]): G1 block
inhibition of growth (HT-29 SF cells [4]; 0-200 μM, 0-72 hours): time- and dose-dependent inhibition of growth
exposure time after which cell number reduced compared to controls (HT-29 SF cells [4]; 25 or 50 μM DHEA): 48 h

CC(C)[N+]1(C)[C@@H]2CC[C@H]1C[C@@H](OC(=O)C(CO)c1ccccc1)C2 (stereo partly drawn) [IB, Ipratropium Bromide]
severe adverse effects attributable to ipratropium [5]: Neither the adult nor the pediatric studies reported severe adverse effects
inhibition of histamine release (mast cell): no distinction

CC(c1cc2ccccc2s1)N(O)C(N)=O (stereo not drawn) [Zyflo]
beta-agonist puffs per day lower than baseline ([6]; at the end of the study): 31%
number of beta-agonist puffs needed per day ([6]; at the end of the study): 1.77 puffs
patients requiring steroid rescue ([6]; compared with 18.7% placebo): 7%
reduction in patients requiring steroid rescue vs placebo ([6]; human, in vivo): 62%

CCC(CO)(C(=O)OC1C[C@H]2CC[C@@H](C1)[N+]2(C)C)c1ccccc1.[I-] (stereo partly drawn) [troventol]
inhibition of histamine release (mast cell): 47%
decrease in speed of passive calcium ion uptake (mast cells): 56.3%

Nc1nc(=O)c2c([nH]1)NCC(CNc1ccc(C(=O)N[C@@H](CCC(=O)O)C(=O)O)cc1)N2C=O (mixture of isomers) [Folinic Acid, Folinic acid]
adenosine levels, folinic acid administered alone ([7]; all organs studied): increase in adenosine levels
effect of co-administration of folinic acid on steroid-mediated adenosine depletion ([7]; co-administered with DHEA or methyltestosterone): completely abrogated

Nc1ncnc2c1ncn2[C@@H]1O[C@H](CO)[C@@H](O)[C@H]1O [adenosine]
PC40 for adenosine, mean [8]: 2.5 mg/mL
PC40 for adenosine, mean [9]: 4.5 mg/mL

C[C@@](O)(CCO)CC(=O)O [MVA, mevalonic acid]
reversal of DHEA-induced growth inhibition by supplement (HT-29 SF cells [1]): partially overcome
prevention of DHEA-induced S phase depletion (HT-29 SF cells [2]; 48 hours): partially prevented
prevention of DHEA-induced S phase depletion (HT-29 SF cells [2]; 72 hours): not

C[N+]1(C)[C@@H]2C[C@@H](OC(=O)C(O)(c3cccs3)c3cccs3)C[C@H]1[C@@H]1O[C@@H]12 [tiotropium bromide, Tiotropium bromide]
affinity for muscarinic receptors (muscarinic receptors): high affinity
dissociation from receptor [10]: dissociates very slowly
duration of bronchodilator and bronchoprotective effect ([11]; Phase II, single inhaled doses): over 24 h
patients with dryness of the mouth ([11]; human, in vivo): approximately 10%
duration of stable bronchodilation ([11]; phase III clinical trials, inhaled once daily): more than 24 hours
